The experiment has as its system symmetric dimethylation of arginine (SDMA) of PRMT5 substrates in MCF-7 cells. Kind of experiment: PRMT5 Cell Target Engagement (TE) Assay. It is filed as cell-based. As to conditions: Homo sapiens, MCF7, 72 h; MCF-7 cells treated for 3 days; nuclear SDMA by high content imaging; top concentration 10000 nM. The essentials: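 MCF-7 cells treated 3 days at 37 °C with 10-point 1:3 titration from 10000 nM top. Fixed cells stained with anti-SDMA antibody plus Alexa488 secondary and Hoechst; nuclear fluorescence quantified by high-content imaging versus DMSO wells. EC50 from 4-parameter fit of percent fluorescence vs log concentration.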

What is called EC50 is the concentration at which the effect is half-maximal. A higher EC50 goes with lower potency in that assay. `Cc1nc(N)c2ccn([C@@H]3O[C@@H]4[C@@H](Oc5ccc6cc(Br)c(N)nc6c5)CC[C@]4(O)[C@H]3O)c2n1` [Example 63, (2R,3R,3aS,6S,6aR)-2-(4-amino-2-methyl-7H-pyrrolo[2,3-d]pynmidin-7-yl)-6-((2-amino-3-bromoquinolin-7-yl)oxy)hexahydro-3aH-cyclopenta[b]furan-3,3a-diol] came in with an EC50 of 5.6 nM.
As to `Cc1cn([C@@H]2O[C@@H]3[C@H](Cc4ccc5cc(Cl)c(N)nc5c4)CC[C@]3(O)[C@H]2O)c2ncnc(N)c12` [Example 66, (2R,3R,3aS,6S,6aR)-6-((2-amino-3-chloroquinolin-7-yl)methyl)-2-(4-amino-5-methyl-7H-pyrrolo[2,3-d]pyrimidin-7-yl)hexahydro-3aH-cyclopenta[b]furan-3,3a-diol], a half-maximal response (EC50) required 0.9 nM.
In turn, `Nc1nc2cc(C[C@@H]3CC[C@@]4(O)[C@@H]3O[C@@H](n3ccc5c(N)ncnc53)[C@@H]4O)ccc2cc1Cl` [Example 67, (2R,3R,3aS,6S,6aR)-6-((2-amino-3-chloroquinolin-7-yl)methyl)-2-(4-amino-7H-pyrrolo[2,3-d]pyrimidin-7-yl)hexahydro-3aH-cyclopenta[b]furan-3,3a-diol] displayed an EC50 of 1.2 nM.
The same measure for `Nc1nc2cc(C[C@@H]3CC[C@@]4(O)[C@@H]3O[C@@H](n3cc(F)c5c(N)ncnc53)[C@@H]4O)ccc2cc1Cl` [Example 68, (2R,3R,3aS,6S,6aR)-6-((2-amino-3-chloroquinolin-7-yl)methyl)-2-(4-amino-5-fluoro-7H-pyrrolo[2,3-d]pyrimidin-7-yl)hexahydro-3aH-cyclopenta[b]furan-3,3a-diol]: 1.1 nM.
In turn, `Cc1cn([C@@H]2O[C@@H]3[C@H](Cc4ccc5cc(Br)c(N)nc5c4)CC[C@]3(O)[C@H]2O)c2ncnc(N)c12` [Example 70, (2R,3R,3aS,6S,6aR)-6-((2-amino-3-bromoquinolin-7-yl)methyl)-2-(4-amino-5-methyl-7H-pyrrolo[2,3-d]pyrimidin-7-yl)hexahydro-3aH-cyclopenta[b]furan-3,3a-diol 2,2,2-trifluoroacetate] returned an EC50 of 1 nM.
In the case of `Nc1nc2cc(O[C@H]3CC[C@@]4(O)[C@@H]3O[C@@H](n3ccc5c(N)ncnc53)[C@@H]4O)ccc2cc1F` [Example 71, (2R,3R,3aS,6S,6aR)-6-((2-amino-3-fluoroquinolin-7-yl)oxy)-2-(4-amino-7H-pyrrolo[2,3-d]pyrimidin-7-yl)hexahydro-3aH-cyclopenta[b]furan-3,3a-diol], the EC50 came out at 9 nM.
For `Nc1nc2cc(O[C@H]3CC[C@@]4(O)[C@@H]3O[C@@H](n3ccc5c(N)ncnc53)[C@@H]4O)ccc2cc1Cl` [Example 72, (2R,3R,3aS,6S,6aR)-6-((2-amino-3-chioroquinolin-7-yl)oxy)-2-(4-amino-7H-pyrrolo[2,3-d]pyrimidin-7-yl)hexahydro-3aH-cyclopenta[b]furan-3,3a-diol], the EC50 was 1.2 nM.
Turning to `Nc1nc2cc(O[C@H]3CC[C@@]4(O)[C@@H]3O[C@@H](n3cc(F)c5c(N)ncnc53)[C@@H]4O)ccc2cc1F` [Example 73, (2R,3R,3aS,6S,6aR)-6-((2-amino-3-fluoroquinolin-7-yl)oxy)-2-(4-amino-5-fluoro-7H-pyrrolo[2,3-d]pyrimidin-7-yl)hexahydro-3aH-cyclopenta[b]furan-3,3a-diol], the midpoint of the response, the EC50, lay at 2 nM.
The compound `Nc1nc2cc(O[C@H]3CC[C@@]4(O)[C@@H]3O[C@@H](n3cc(F)c5c(N)ncnc53)[C@@H]4O)ccc2cc1Cl` [Example 74, (2R,3R,3aS,6S,6aR)-6-((2-amino-3-chloroquinolin-7-yl)oxy)-2-(4-amino-5-fluoro-7H-pyrrolo[2,3-d]pyrimidin-7-yl)hexahydro-3aH-cyclopenta[b]furan-3,3a-diol] yielded an EC50 of 1 nM.
As to `Nc1ncnc2c1ccn2[C@@H]1O[C@@H]2[C@@H](Oc3ccc4cc5c(nc4c3)NCC5)CC[C@]2(O)[C@H]1O` [Example 75, (2R,3R,3aS,6S,6aR)-2-(4-amino-7H-pyrrolo[2,3-d]pyrimidin-7-yl)-6-((2,3-dihydro-1H-pyrrolo[2,3-b]quinolin-7-yl)oxy)hexahydro-3aH-cyclopenta[b]furan-3,3a-diol], the EC50 came to 5 nM.
`Nc1nc2cc(C[C@@H]3CC[C@@]4(O)[C@@H]3O[C@@H](n3ccc5c(N)ncnc53)[C@@H]4O)ccc2cc1C(F)(F)F` [Example 76, (2R,3R,3aS,6S,6aR)-6-((2-amino-3-(trifluoromethyl)quinolin-7-yl)methyl)-2-(4-amino-7H-pyrrolo[2,3-d]pyrimidin-7-yl)hexahydro-3aH-cyclopenta[b]furan-3,3a-diol] came in with an EC50 of 8.6 nM.
Take `Nc1nc2cc(O[C@H]3CC[C@@]4(O)[C@@H]3O[C@@H](n3ccc5c(CO)ncnc53)[C@@H]4O)ccc2cc1Br` [Example 77, (2R,3R,3aS,6S,6aR)-6-[(2-amino-3-bromoquinolin-7-yl)oxy]-2-[4-(hydroxymethyl)-7H-pyrrolo[2,3-d]pyrimidin-7-yl]hexahydro-3aH-cyclopenta[b]furan-3,3a-diol]: the EC50 was found to be 186 nM.
`CC(C)(O)c1ncnc2c1ccn2[C@@H]1O[C@@H]2[C@@H](Oc3ccc4cc(Br)c(N)nc4c3)CC[C@]2(O)[C@H]1O` [Example 78, (2R,3R,3aS,6S,6aR)-6-1(2-amino-3-bromoquinolin-7-yl)oxyl-2-[4-(2-hydroxypropan-2-yl)-7H-pyrrolo[2,3-d]pyrimidin-7-yl]hexahydro-3aH-cyclcopenta[b]furan-3,3a-diol] came in with an EC50 of 5990 nM.
`Cc1nc(C)c2ccn([C@@H]3O[C@@H]4[C@@H](Oc5ccc6cc(Br)c(N)nc6c5)CC[C@]4(O)[C@H]3O)c2n1` [Example 80, (2R,3R,3aS,6S,6aR)-6-((2-amino-3-bromoquinolin-7-yl)oxy)-2-(2,4-dimethyl-7H-pyrrolo[2,3-d]pyrimidin-7-yl)hexahydro-3aH-cyclopenta[b]furan-3,3a-diol 2,2,2-trifluoroacetate] showed an EC50 of 97 nM.
As for `Cc1nc(C)c2ccn([C@@H]3O[C@@H]4[C@H](Cc5ccc6cc(Br)c(N)nc6c5)CC[C@]4(O)[C@H]3O)c2n1` [Example 81, (2R,3R,3aS,6S,6aR)-6-((2-ammo-3-bromoquinolin-7-yl)methyl)-2-(2,4-dimethyl-7H-pyrrolo[2,3-d]pyrimidin-7-yl)hexahydro-3aH-cyclcopenta[b]furan-3,3a-diol], the figure is 3.9 nM; as for `CC(C)c1ncnc2c1ccn2[C@@H]1O[C@@H]2[C@H](Cc3ccc4cc(Br)c(N)nc4c3)CC[C@]2(O)[C@H]1O` [Example 83, (2R,3R,3aS,6S,6aR)-6-((2-amino-3-bromoquinolin-7-yl)methyl)-2-(4-isopropyl-7H-pyrrolo[2,3-d]pyrimidin-7-yl)hexahydro-3aH-cyclopenta[b]furan-3,3a-diol], 41.1 nM; as for `Cc1ncnc2c1c(F)cn2[C@@H]1O[C@@H]2[C@H](Cc3ccc4cc(Br)c(N)nc4c3)CC[C@]2(O)[C@H]1O` [Example 84, (2R,3R,3aS,6S,6aR)-6-((2-amino-3-bromoquinolin-7-yl)methyl)-2-(5-fluoro-4-methyl-7H-pyrrolo[2,3-d]pyrimidin-7-yl)hexahydro-3aH-cyclopenta[b]furan-3,3a-diol], 7.5 nM.
The same measure for `Nc1nc2cc(O[C@H]3CC[C@@]4(O)[C@@H]3O[C@@H](n3ccc5cncnc53)[C@@H]4O)ccc2cc1Br` [Example 85, (2R,3R,3aS,6S,6aR)-6-((2-amino-3-bromoquinolin-7-yl)oxy)-2-(7H-pyrrolo[2,3-d]pyrimidin-7-yl)hexahydro-3aH-cyclopenta[b]furan-3,3a-diol]: 32.4 nM; for `Cc1ncnc2c1ccn2[C@@H]1O[C@@H]2[C@@H](Oc3ccc4cc(F)c(N)nc4c3)CC[C@]2(O)[C@H]1O` [Example 86, (2R,3R,3aS,6S,6aR)-6-((2-amino-3-fluoroquinolin-7-yl)oxy)-2-(4-methyl-7H-pyrrolo[2,3-d]pyrimidin-7-yl)hexahydro-3aH-cyclopenta[b]furan-3,3a-diol]: 37.5 nM; for `Nc1nc2cc(C[C@@H]3CC[C@@]4(O)[C@@H]3O[C@@H](n3ccc5c(C6CC6)ncnc53)[C@@H]4O)ccc2cc1Br` [Example 87, (2R,3R,3aS,6S,6aR)-6-((2-amino-3-bromoquinolin-7-yl)methyl)-2-(4-cyclopropyl-7H-pyrrolo[2,3-d]pyrimidin-7-yl)hexahydro-3aH-cyclopenta[b]furan-3,3a-diol]: 22.9 nM.
On to `Cc1ncnc2c1ccn2[C@@H]1O[C@@H]2[C@H](Cc3ccc4cc(C(F)(F)F)c(N)nc4c3)CC[C@]2(O)[C@H]1O` [Example 88, (2R,3R,3aS,6S,6aR)-6-((2-amino-3-(trifluoromethyl)quinolin-7-yl)methyl)-2-(4-methyl-7H-pyrrolo[2,3-d]pyrimidin-7-yl)hexahydro-3aH-cyclopenta[b]furan-3,3a-diol], for which the EC50 is 25.3 nM.
As for `Cc1ncnc2c1ccn2[C@@H]1O[C@@H]2[C@@H](Oc3ccc4cc5c(nc4c3)NCC5)CC[C@]2(O)[C@H]1O` [Example 89, (2R,3R,3aS,6S,6aR)-6-((2,3-dihydro-1H-pyrrolo[2,3-b]quinolin-7-yl)oxy)-2-(4-methyl-7H-pyrrolo[2,3-d]pyrimidin-7-yl)hexahydro-3aH-cyclopenta[b]furan-3,3a-diol], the figure is 4.4 nM; as for `Cc1nc(C)c2ccn([C@@H]3O[C@@H]4[C@H](Cc5ccc6cc(F)c(N)nc6c5)CC[C@]4(O)[C@H]3O)c2n1` [Example 90, (2R,3R,3aS,6S,6aR)-6-((2-amino-3-fluoroquinolin-7-yl)methyl)-2-(2,4-dimethyl-7H-pyrrolo[2,3-d]pyrimidin-7-yl)hexahydro-3aH-cyclopenta[b]furan-3,3a-diol], 42.2 nM; as for `Cc1nc(C)c2ccn([C@@H]3O[C@@H]4[C@H](Cc5ccc6cc(Cl)c(N)nc6c5)CC[C@]4(O)[C@H]3O)c2n1` [Example 91, (2R,3R,3aS,6S,6aR)-6-((2-amino-3-chloroquinolin-7-yl)methyl)-2-(2,4-dimethyl-7H-pyrrolo[2,3-d]pyrimidin-7-yl)hexahydro-3aH-cyclopenta[b]furan-3,3a-diol], 6.3 nM.
On to `CNc1ncnc2c1ccn2[C@@H]1O[C@@H]2[C@H](Cc3ccc4cc(Br)c(N)nc4c3)CC[C@]2(O)[C@H]1O` [Example 92], for which the EC50 stood at 9.9 nM.

The record behind these values is patent publication US12173026B2, “PRMT5 inhibitors” (Merck Sharp & Dohme LLC, priority 2018, dated 2024).
